Drawing on patent publication US9718790B2, “Triazine derivative and pharmaceutical composition having an analgesic activity comprising the same” (SHIONOGI & CO., LTD., priority 2010, dated 2017), this text covers IC50 for 61 compounds.

The assay concerns the target human P2X3 receptor (Homo sapiens (Human), UniProt P56373). The experiment in a line: Evaluation of human P2X3 receptor inhibitory activity (Fluo-3 calcium fluorescence, FDSS 3000, ATP stimulation).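 Also: stimulus was 50 nM ATP with fluorescence followed for 3 min, and the response per well was peak post-ATP fluorescence divided by the reading at measurement start.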 The note with it: C6BU-1 cells stably expressing human P2X3 receptor. The assay is classed as cell-based.

Chain of human P2X3 receptor (P56373 whole entry): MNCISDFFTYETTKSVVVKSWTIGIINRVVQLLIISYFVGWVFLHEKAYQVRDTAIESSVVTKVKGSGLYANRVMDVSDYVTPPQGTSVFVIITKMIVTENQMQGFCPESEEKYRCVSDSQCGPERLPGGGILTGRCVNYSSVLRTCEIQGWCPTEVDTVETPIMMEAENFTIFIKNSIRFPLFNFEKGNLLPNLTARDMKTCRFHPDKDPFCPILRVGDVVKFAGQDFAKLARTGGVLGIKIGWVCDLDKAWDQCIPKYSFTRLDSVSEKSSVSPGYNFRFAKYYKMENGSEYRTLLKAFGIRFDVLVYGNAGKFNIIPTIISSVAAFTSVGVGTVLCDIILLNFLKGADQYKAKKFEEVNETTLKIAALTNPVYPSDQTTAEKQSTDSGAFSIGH

With `CCc1cc(/N=c2\[nH]c(=O)n(CCC(=O)O)c(=O)n2Cc2ccc(C)cc2)ccc1OC(C)C` [Compound I-1199], the IC50 is 36 nM.
For `Cc1ccc(Cn2c(=O)n(C[C@H](C)C(=O)O)c(=O)[nH]/c2=N\c2ccc(/C=C/C3CC3)cc2)cc1` [Compound I-1200] the value was 45 nM.
For `COC(=O)[C@@H](C)Cn1c(=O)[nH]/c(=N\c2cccc(OC)c2)n(Cc2ccc(C)cc2)c1=O` [Compound I-1201] the value was 788 nM; for `COC(=O)[C@@H](C)Cn1c(=O)[nH]/c(=N\c2ccc(CCC3CC3)cc2)n(Cc2ccc(C)cc2)c1=O` [Compound I-1202], 93 nM.
For `CCCCCc1ccc(/N=c2\[nH]c(=O)n(C[C@H](C)C(=O)OC)c(=O)n2Cc2ccc(C)cc2)cc1` [Compound I-1203] the value was 532 nM; for `CCOC(=O)CCn1c(=O)[nH]/c(=N\c2ccc(Oc3cccnc3)cc2)n(Cc2ccc(Cl)cc2)c1=O` [Compound I-1204], 5 nM.
As for `CCOC(=O)CCn1c(=O)[nH]/c(=N\c2ccc(Oc3ccncc3)cc2)n(Cc2ccc(Cl)cc2)c1=O` [Compound I-1205], the IC50 is 2 nM.
For `O=C(O)CCn1c(=O)[nH]/c(=N\c2ccc(Oc3cccnc3)cc2)n(Cc2ccc(Cl)cc2)c1=O` [Compound I-1206] the value was 43 nM; for `O=C(O)CCn1c(=O)[nH]/c(=N\c2ccc(Oc3ccncc3)cc2)n(Cc2ccc(Cl)cc2)c1=O` [Compound I-1207], 15 nM; for `COC(=O)[C@@H](C)Cn1c(=O)[nH]/c(=N\c2ccc(Oc3cccnc3C)cc2)n(Cc2ccc(C)cc2)c1=O` [Compound I-1208], 21 nM.
On to `CCCc1ccc(/N=c2\[nH]c(=O)n(C[C@H](C)C(=O)OC)c(=O)n2Cc2ccc(C)cc2)cc1C` [Compound I-1210], for which the IC50 came out at 37 nM.
As for `CCCc1ccc(/N=c2\[nH]c(=O)n(C[C@H](C)C(=O)OC)c(=O)n2Cc2ccc(Cl)cc2)cc1C` [Compound I-1211], the figure is 30 nM; as for `CCCc1ccc(/N=c2\[nH]c(=O)n(C[C@H](C)C(=O)O)c(=O)n2Cc2ccc(C)cc2)cc1C` [Compound I-1212], 90 nM.
With `CCCc1ccc(/N=c2\[nH]c(=O)n(C[C@H](C)C(=O)O)c(=O)n2Cc2ccc(Cl)cc2)cc1C` [Compound I-1213], the half-inhibitory concentration (IC50) amounted to 104 nM.
As for `Cc1ccc(Cn2c(=O)n(C[C@H](C)C(=O)O)c(=O)[nH]/c2=N\c2ccc(CCC3CC3)cc2)cc1` [Compound I-1214], the figure is 70 nM; as for `CCCc1ccc(/N=c2\[nH]c(=O)n(CCC(=O)OCC)c(=O)n2Cc2ccc(C)cc2)cc1C` [Compound I-1215], 27 nM; as for `CCOC(=O)CCn1c(=O)[nH]/c(=N\c2ccc(CC(C)C)c(C)c2)n(Cc2ccc(C)cc2)c1=O` [Compound I-1216], 13 nM.
For the compound `COC(=O)[C@@H](C)Cn1c(=O)[nH]/c(=N\c2ccc(OC3CCC3)cc2)n(Cc2ccc(C)cc2)c1=O` [Compound I-1217], the IC50 was found to be 5 nM.
For the compound `COC(=O)[C@@H](C)Cn1c(=O)[nH]/c(=N\c2ccc(OC3COC3)cc2)n(Cc2ccc(C)cc2)c1=O` [Compound I-1218], the 50% inhibitory concentration (IC50) was determined as 61 nM.
As for `COC(=O)[C@@H](C)Cn1c(=O)[nH]/c(=N\c2ccc(OC3CCCCC3)cc2)n(Cc2ccc(C)cc2)c1=O` [Compound I-1219], the figure is 29 nM.
As for `Cc1ccc(Cn2c(=O)n(C[C@H](C)C(=O)O)c(=O)[nH]/c2=N\c2ccc(OC3CCC3)cc2)cc1` [Compound I-1220], the figure is 13 nM; as for `Cc1ccc(Cn2c(=O)n(C[C@H](C)C(=O)O)c(=O)[nH]/c2=N\c2ccc(OC3COC3)cc2)cc1` [Compound I-1221], 117 nM.
As for `Cc1ccc(Cn2c(=O)n(C[C@H](C)C(=O)O)c(=O)[nH]/c2=N\c2ccc(OC3CCCCC3)cc2)cc1` [Compound I-1222], the figure is 17 nM; as for `CCCc1ccc(/N=c2\[nH]c(=O)n(CCC(=O)O)c(=O)n2Cc2ccc(C)cc2)cc1C` [Compound I-1223], 297 nM.
On to `Cc1ccc(Cn2c(=O)n(CCC(=O)O)c(=O)[nH]/c2=N\c2ccc(CC(C)C)c(C)c2)cc1` [Compound I-1224], for which the IC50 turned out to be 54 nM.
Take `Cc1ccc(Cn2c(=O)n(C[C@H](C)C(=O)O)c(=O)[nH]/c2=N\c2ccc(OC3CCCC3)nc2)cc1` [Compound I-1226]: the IC50 turned out to be 122 nM.
Consider `Cc1ccc(Cn2c(=O)n(CCC(=O)O)c(=O)[nH]/c2=N\c2ccc(Oc3cccnc3)cc2)cc1` [Compound I-1227], for which the 50% inhibitory concentration (IC50) worked out at 30 nM.
For `Cc1ccc(Cn2c(=O)n(CCC(=O)O)c(=O)[nH]/c2=N\c2ccc(Oc3ccncc3)cc2)cc1` [Compound I-1228] the value was 9 nM; for `CCOC(=O)CCn1c(=O)[nH]/c(=N\c2ccc(Oc3cccnc3)cc2)n(Cc2ccc(C)cc2)c1=O` [Compound I-1229], 4 nM.
On to `CCOC(=O)CCn1c(=O)[nH]/c(=N\c2ccc(Oc3ccncc3)cc2)n(Cc2ccc(C)cc2)c1=O` [Compound I-1230], for which the IC50 turned out to be 4 nM.
For `Cc1ccc(Cn2c(=O)n(C[C@H](C)C(=O)O)c(=O)[nH]/c2=N\c2ccc(Oc3cccnc3C)cc2)cc1` [Compound I-1231] the value was 36 nM.
For `COC(=O)[C@@H](C)Cn1c(=O)[nH]/c(=N\c2ccc(N3CCCCCC3)cc2)n(Cc2ccc(Cl)cc2)c1=O` [Compound I-1233] the value was 325 nM; for `COC(=O)[C@@H](C)Cn1c(=O)[nH]/c(=N\c2ccc(N3CCCCCC3)cc2)n(Cc2ccc(C)cc2)c1=O` [Compound I-1234], 230 nM; for `C[C@@H](Cn1c(=O)[nH]/c(=N\c2ccc(N3CCCCCC3)cc2)n(Cc2ccc(Cl)cc2)c1=O)C(=O)O` [Compound I-1235], 214 nM.
`COC(=O)C(C)(C)Cn1c(=O)[nH]/c(=N\c2ccc(OCC3CC3)cc2)n(Cc2ccc(Cl)cc2)c1=O` [Compound I-1236]: the IC50 is 13 nM.
As for `Cc1ccc(Cn2c(=O)n(C[C@H](C)C(=O)O)c(=O)[nH]/c2=N\c2ccc(N3CCCCCC3)cc2)cc1` [Compound I-1237], the figure is 183 nM; as for `CCOC(=O)CCCn1c(=O)[nH]/c(=N\c2ccc(Oc3ccncc3)cc2)n(Cc2ccc(C)cc2)c1=O` [Compound I-1238], 2 nM; as for `CCOC(=O)CCCn1c(=O)[nH]/c(=N\c2ccc(O)cc2)n(Cc2ccc(C)cc2)c1=O` [Compound I-1239], 732 nM.
As for `COC(=O)[C@@H](C)Cn1c(=O)[nH]/c(=N\c2ccc(Oc3cc(C)nc(C)c3)cc2)n(Cc2ccc(C)cc2)c1=O` [Compound I-1240], the figure is 18 nM; as for `COC(=O)[C@@H](C)Cn1c(=O)[nH]/c(=N\c2ccc(Cc3ccncc3)cc2)n(Cc2ccc(C)cc2)c1=O` [Compound I-1241], 108 nM; as for `COC(=O)C(C)(C)Cn1c(=O)[nH]/c(=N\c2ccc(OCC3CC3)cc2)n(Cc2ccc(C)cc2)c1=O` [Compound I-1242], 15 nM.
For `Cc1ccc(Cn2c(=O)n(CCCC(=O)O)c(=O)[nH]/c2=N\c2ccc(Oc3ccncc3)cc2)cc1` [Compound I-1243], the IC50 stood at 12 nM.
As for `COc1cc(/N=c2\[nH]c(=O)n(C[C@H](C)C(=O)O)c(=O)n2Cc2ccc(C)cc2)ccc1Br` [Compound I-1244], the figure is 473 nM; as for `COC(=O)CCCn1c(=O)[nH]/c(=N\c2ccc(Oc3ccncc3)cc2)n(Cc2ccc(Cl)cc2)c1=O` [Compound I-1245], 3 nM.
`CCOC(=O)CCn1c(=O)[nH]/c(=N\c2ccc(OC(C)C)c(OC)c2)n(Cc2ccc(C)cc2)c1=O` [Compound I-1246]: the IC50 is 6 nM.
For `COC(=O)[C@@H](C)Cn1c(=O)[nH]/c(=N\c2ccc(CC(C)C)c(OC)c2)n(Cc2ccc(Cl)cc2)c1=O` [Compound I-1247] the value was 28 nM; for `CCOC(=O)CCn1c(=O)[nH]/c(=N\c2ccc(OC(C)C)c(OC)c2)n(Cc2ccc(Cl)cc2)c1=O` [Compound I-1248], 6 nM.
As for `COC(=O)[C@@H](C)Cn1c(=O)[nH]/c(=N\c2ccc(CC(C)C)c(OC)c2)n(Cc2ccc(C)cc2)c1=O` [Compound I-1249], the figure is 21 nM; as for `CCCc1ccc(/N=c2\[nH]c(=O)n(CCC(=O)OCC)c(=O)n2Cc2ccc(Cl)cc2)cc1C` [Compound I-1250], 54 nM; as for `CCOC(=O)CCn1c(=O)[nH]/c(=N\c2ccc(CC(C)C)c(C)c2)n(Cc2ccc(Cl)cc2)c1=O` [Compound I-1251], 17 nM.
As for `COC(=O)[C@@H](C)Cn1c(=O)[nH]/c(=N\c2ccc(CC(C)C)c(F)c2)n(Cc2ccc(C)cc2)c1=O` [Compound I-1252], the figure is 23 nM.
For `CCCc1ccc(/N=c2\[nH]c(=O)n(CCC(=O)O)c(=O)n2Cc2ccc(Cl)cc2)cc1C` [Compound I-1253], the half-inhibitory concentration (IC50) was 281 nM.
For `COC(=O)[C@@H](C)Cn1c(=O)[nH]/c(=N\c2ccc(CC(C)C)c(F)c2)n(Cc2ccc(Cl)cc2)c1=O` [Compound I-1254], the IC50 came out at 45 nM.
For `Cc1cc(/N=c2\[nH]c(=O)n(CCC(=O)O)c(=O)n2Cc2ccc(Cl)cc2)ccc1CC(C)C` [Compound I-1255] the value was 48 nM.
For `Cc1ccc(Cn2c(=O)n(C[C@H](C)C(=O)O)c(=O)[nH]/c2=N\c2ccc(CC(C)C)c(F)c2)cc1` [Compound I-1256] the value was 18 nM.
For `CC(C)Cc1ccc(/N=c2\[nH]c(=O)n(C[C@H](C)C(=O)O)c(=O)n2Cc2ccc(Cl)cc2)cc1F` [Compound I-1257] the value was 9 nM; for `COC(=O)C(C)(C)Cn1c(=O)[nH]/c(=N\c2cccc(C(F)(F)F)c2)n(Cc2ccc(C)cc2)c1=O` [Compound I-1258], 8 nM; for `O=C(O)CCCn1c(=O)[nH]/c(=N\c2ccc(Oc3ccncc3)cc2)n(Cc2ccc(Cl)cc2)c1=O` [Compound I-1259], 11 nM.
As for `Cc1ccc(Cn2c(=O)n(C[C@H](C)C(=O)O)c(=O)[nH]/c2=N\c2ccc(Oc3cc(C)nc(C)c3)cc2)cc1` [Compound I-1260], the IC50 came out at 31 nM.
As for `COc1cc(/N=c2\[nH]c(=O)n(C[C@H](C)C(=O)O)c(=O)n2Cc2ccc(C)cc2)ccc1CC(C)C` [Compound I-1261], the figure is 18 nM; as for `Cc1ccc(Cn2c(=O)n(C[C@H](C)C(=O)O)c(=O)[nH]/c2=N\c2ccc(Cc3ccncc3)cc2)cc1` [Compound I-1262], 163 nM.
